Where “and” joins values, the source holds several entries; their conditions need not be identical. Identical values can stand only once. Like-named read-outs stand apart in the source and are kept apart here.

Data set [1] concerns the target T1, human MOR (Homo sapiens, UniProt P35372). As to the kind of experiment: [35S]GTP-γ-S functional assay, CHO cell membranes. The class given is biochemical. To be noted: stimulation of [35S]GTPγS binding; NA = no activity. As to the method:
In a final volume of 0.5 mL, various concentrations of each tested compound were incubated with […] (μ) of CHO cell membranes that stably expressed the human MOR. The assay buffer consisted of 50 mM Tris-HCl, pH 7.4, 3 mM MgCl2, 0.2 mM EGTA, […] and 100 mM NaCl. The final concentration of [^35S]GTP-γ-S was 0.08 nM. Nonspecific binding was measured by the inclusion of […] GTP-γ-S. Binding was initiated by the addition of the membranes. After an incubation period of 60 min at 30 °C, the reactions were terminated by rapid filtration, and the radioactivity was determined by liquid scintillation counting.

The target in data set [2] is T1, human MOR. The data set is described as follows: Radioligand binding assay, displacement of [3H]DAMGO from CHO cell membranes. (In a radioligand displacement assay an active substance lowers the binding of a labelled ligand.)
In data set [3] the target is T2, DOR (Homo sapiens, UniProt P41143). The data set is described as follows: Radioligand binding assay, displacement of [3H]DPDPE from CHO cell membranes. The arrangement: host or cells: CHO cells, stably transfected; membranes. To be noted: for activity / affinity for DOR, in words: in vitro; for Ki: [3H]DPDPE, CHO membranes, read-out: Ki (±SEM) DOR.
Data set [4] deals with T3, KOR (Homo sapiens, UniProt P41145). As to the kind of experiment: Radioligand binding assay, displacement of [3H]U69593 from CHO cells. To be noted: for inhibition at 1 µM: displacement of [3H]U69593 at 1.0 μM. The arrangement: host or cells: CHO cells, stably transfected; membranes.
In data set [5] the target is T3, KOR. Also noted: host or cells: CHO cells, stably transfected; membranes; method as in PMID 27096047. To be noted: cited from earlier work; for Ki: read-out: Ki (±SEM) KOR.
Data set [6] deals with T2, DOR. The arrangement: host or cells: CHO cells, stably transfected; membranes; method as in PMID 27096047.
Data set [7] concerns the target T1, human MOR. The arrangement: method as in PMID 27096047. To be noted: cited from earlier work.
Data set [8] deals with T3, KOR. Also noted: expressed in transfected cells; method as in PMID 27096047. To be noted: stimulation of [35S]GTPγS binding; NA = no activity; cited from earlier work. A general note: GTPγS is a poorly hydrolysed GTP analogue; its binding reports G protein activation.
Data set [9] has as its target T2, DOR. Also noted: expressed in transfected cells; method as in PMID 27096047. To be noted: stimulation of [35S]GTPγS binding; NA = no activity; cited from earlier work.

T2 sequence (P41143 whole entry): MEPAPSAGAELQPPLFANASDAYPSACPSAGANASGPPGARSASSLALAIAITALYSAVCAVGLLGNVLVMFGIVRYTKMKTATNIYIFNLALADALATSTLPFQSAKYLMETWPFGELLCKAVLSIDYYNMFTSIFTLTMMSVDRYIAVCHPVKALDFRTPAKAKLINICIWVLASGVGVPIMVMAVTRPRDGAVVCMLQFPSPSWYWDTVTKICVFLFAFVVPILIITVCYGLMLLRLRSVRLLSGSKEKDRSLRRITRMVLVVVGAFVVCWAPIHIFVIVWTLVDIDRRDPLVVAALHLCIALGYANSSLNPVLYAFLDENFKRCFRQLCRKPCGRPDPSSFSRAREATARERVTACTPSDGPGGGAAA
T1 sequence (P35372 whole entry): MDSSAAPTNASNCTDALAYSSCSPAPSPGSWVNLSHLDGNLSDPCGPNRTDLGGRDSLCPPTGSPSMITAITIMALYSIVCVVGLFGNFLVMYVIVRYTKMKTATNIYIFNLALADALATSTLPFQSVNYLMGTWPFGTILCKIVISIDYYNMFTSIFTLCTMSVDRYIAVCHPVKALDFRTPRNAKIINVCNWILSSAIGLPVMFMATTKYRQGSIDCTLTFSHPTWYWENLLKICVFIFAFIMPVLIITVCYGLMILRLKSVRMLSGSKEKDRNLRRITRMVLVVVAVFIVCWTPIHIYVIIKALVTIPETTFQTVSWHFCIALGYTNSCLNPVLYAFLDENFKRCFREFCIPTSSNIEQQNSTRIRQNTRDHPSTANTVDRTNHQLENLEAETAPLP
T3 sequence (P41145 whole entry): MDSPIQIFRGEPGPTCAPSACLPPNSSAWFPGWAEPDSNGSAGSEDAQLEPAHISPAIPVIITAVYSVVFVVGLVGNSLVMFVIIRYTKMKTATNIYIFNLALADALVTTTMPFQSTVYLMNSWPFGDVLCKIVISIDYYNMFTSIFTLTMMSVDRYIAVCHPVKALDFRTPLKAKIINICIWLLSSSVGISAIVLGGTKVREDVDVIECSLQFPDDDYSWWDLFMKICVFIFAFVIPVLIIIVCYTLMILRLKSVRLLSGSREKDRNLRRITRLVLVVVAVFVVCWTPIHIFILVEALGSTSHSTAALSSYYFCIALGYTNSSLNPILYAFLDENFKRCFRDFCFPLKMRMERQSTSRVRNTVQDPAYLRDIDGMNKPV

For the compound `C[C@@H](NC(=O)[C@@H](N)Cc1ccc(O)cc1)C(=O)NCC(=O)N(C)[C@@H](Cc1ccccc1)C(=O)NCCO` [DAMGO], in [1], the maximal effect (Emax) (commonly the maximal effect, on the per cent scale that the assay sets) stood at 205 ± 2.05%.

As for `CN(C)CC1CCc2ccccc2C1(O)c1cccc(O)c1` (stereo not shown) [FW-1], the “activity for MOR, in words” value in data set [2] (in vitro) is on record as “not be active”. Further, the inhibition constant (Ki) – broadly, a dissociation constant, usually derived from enzyme kinetics or from competition with a known ligand – in [2] (read-out: Ki (±SEM) MOR) was over 10 µM. Besides, in data set [3], the inhibition (usually the share of the control response that was lost under treatment) at 1 µM amounted to 21.7 ± 2.9% and the “activity / affinity for DOR, in words” value was “not be active”. The compound further showed an inhibition at 1 µM in data set [4] of 56.3 ± 4.9%. The “activity for KOR, in words” value in data set [4] (in vitro) is recorded as “not be active”.

For the compound `CN(C)CC1CCc2cc(-c3ccccc3)ccc2C1(O)c1cccc(O)c1` (stereo not shown) [FW-AII-OH-1], the inhibitory constant (Ki) in data set [5] was 0.141 µM and 0.14 µM. Besides, the “Inhibition (%) DOR” value in data set [6] (displacement of [3H]DPDPE at 1.0 μM; cited from earlier work) is on record as 22.0 ± 1.0%. Further, the “Inhibition (%) MOR” value in data set [7] (displacement of [3H]DAMGO at 1.0 μM) is listed as 20 ± 1.0%. In [8], the concentration giving a half-maximal response (EC50) – broadly, the concentration needed to bring the measured effect to its halfway point – was 0.58 ± 0.084 µM and the “KOR Emax%” value was 187 ± 2%.

On to `COc1ccccc1-c1ccc2c(c1)CCC(CN(C)C)C2(O)c1cccc(O)c1` (stereo not shown) [FW-AII-OH-2], for which the “Inhibition (%) KOR” value in [5] (displacement of [3H]U69593 at 1.0 μM) is given as 17.7 ± 0.1%. For the same compound, the inhibitory constant (Ki) in data set [6] ([3H]DPDPE, CHO membranes; >10^4 = no binding affinity up to 10^4 nM; read-out: Ki (±SEM) DOR; cited from earlier work) was 0.00464 µM and 0.0047 µM. In addition, in data set [7] ([3H]DAMGO, CHO membranes, >10^4 = no binding affinity up to 10^4 nM, read-out: Ki (±SEM) MOR), the Ki is over 10 µM. In data set [9], the “DOR Emax%” value is recorded as 230 ± 7% and the EC50 is 0.0093 ± 0.0005 µM.

Turning to `COc1ccccc1-c1ccc2c(c1)CCC(CN(C)CCc1ccccc1)C2(O)c1cccc(O)c1.Cl` (stereo not shown) [FW-DI-OH-2, 1-(3-hydroxyphenyl)-6-(2-methoxyphenyl)-2-((methyl(phenethyl)amino)methyl)-1,2,3,4-tetrahydronaphthalen-1-ol hydrochloride], the melting point (commonly the temperature of the solid-liquid transition) lay in the range of 200.2 to 202.4 °C. Besides, in [3], the inhibitory constant (Ki) is 0.0087 µM and 0.00865 µM; the “activity / affinity for DOR, in words” value is given as “high affinitive”. The same compound gave an inhibition at 1 µM in [4] of 30.1 ± 2.1%.

Consider `CN(CCc1ccccc1)CC1CCc2cc(-c3ccccc3)ccc2C1(O)c1cccc(O)c1.Cl` (stereo not shown) [FW-DIII-OH-2, 1-(3-hydroxyphenyl)-2-((methyl(phenethyl)amino)methyl)-6-phenyl-1,2,3,4-tetrahydronaphthalen-1-ol hydrochloride], for which the melting point lay within 202.1 to 204.6 °C. In [3], the Ki is 0.228 µM and 0.229 µM; the “activity / affinity for DOR, in words” value is given as “moderate affinity”. The inhibition at 1 µM in data set [4] is 13.5 ± 0.1%.

Regarding `CN(C)CC1CCCCC1(O)c1cccc(O)c1` (stereo not shown) [M1, reference compound], the Ki was over 10 µM in data set [5] ([3H]U69593, CHO cells, >10^4 = no binding affinity up to 10^4 nM) and over 10 µM in [6] (read-out: Ki (±SEM) DOR; [3H]DPDPE, CHO membranes; >10^4 = no binding affinity up to 10^4 nM; cited from earlier work). Moreover, the maximal response (Emax) in data set [1] worked out at 226 ± 9%.

The record behind these values is paper PMC9000250, “Computational Methods for Understanding the Selectivity and Signal Transduction Mechanism of Aminomethyl Tetrahydronaphthalene to Opioid Receptors” (Molecules, 2022).
